This experiment has as its target Calpain-2 catalytic subunit (Sus scrofa) (UniProt P43367). The experiment in a line: m-calpain protease blockers, concentration series – biochemical, fluorogenic peptide substrate, dose response (AID 1420). Particulars: purified calpain II, 30 min.

Calls of active or inactive are those of the source. How the calls were made is not given here.

Sequence of Calpain-2 catalytic subunit (Sus scrofa) (P43367 whole entry, looked up): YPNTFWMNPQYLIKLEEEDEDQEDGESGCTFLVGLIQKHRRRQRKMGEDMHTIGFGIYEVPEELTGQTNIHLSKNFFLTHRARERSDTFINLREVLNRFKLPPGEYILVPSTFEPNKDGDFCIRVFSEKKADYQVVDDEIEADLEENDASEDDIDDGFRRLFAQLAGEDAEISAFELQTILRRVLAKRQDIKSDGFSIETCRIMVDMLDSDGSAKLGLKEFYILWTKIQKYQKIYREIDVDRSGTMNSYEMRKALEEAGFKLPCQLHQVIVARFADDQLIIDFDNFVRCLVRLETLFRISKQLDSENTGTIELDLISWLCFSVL

On to `CC(C)(C)C1CCC(=NNc2ccc(S(N)(=O)=O)cc2[N+](=O)[O-])CC1` (stereo unspecified), for which the IC50 entry was “inactive”.

Source of the values: PubChem BioAssay AID1420 (Emory University Molecular Libraries Screening Center, 2008).
